# Data from patent US11618749B2, “Compounds and compositions for treating conditions associated with STING activity” (IFM Due, Inc., priority 2018, dated 2023).
# pEC50: −log10 of the molar value.
# Molecular target: T1, hSTING (Homo sapiens, UniProt Q86WV6, G230A/H232R/R293Q/R71H)
# T1 construct: host or cells: THP1-Dual KO-IFNAR2 cells
# Test: STING reporter assay (luciferase reporter) in THP1-Dual KO-IFNAR2 cells activated with 2′3′cGAMP
# Type: cell-based
# Conditions: 15 μM 2′3′cGAMP, 24 h, luciferase reporter activity
# Description: STING pathway activation by the compounds described herein is measured using THP1-Dual™ cells (KO-IFNAR2).
# THP1-Dual™ KO-IFNAR2 Cells (obtained from invivogen) are maintained in RPMI, 10% FCS, 5 ml P/S, 2 mM L-glut, 10 mM Hepes, and 1 mM sodium pyruvate. Compounds are spotted in empty 384 well tissue culture plates (Greiner 781182) by Echo for a final concentration of […]. Cells are plated into the TC plates at 40 μL per well, 2×10E6 cells/mL. For activation with STING ligand, 2′3′cGAMP (MW 718.38, obtained from Invivogen), is prepared in Optimem media.
# The following solutions are prepared for each 1×384 plate: • Solution A: 2 mL Optimem with one of the following stimuli: • 60 uL of 10 mM 2′3′cGAMP→150 μM stock • Solution B: 2 mL Optimem with 60 μL Lipofectamine 2000→Incubate 5 min at RT
# 2 mL of solution A and 2 ml Solution B is mixed and incubated for 20 min at room temperature (RT). 20 uL of transfection solution (A+B) is added on top of the plated cells, with a final 2′3′cGAMP concentration of 15 μM. The plates are then centrifuged immediately at 340 g for 1 minute, after which they are incubated at 37° C., 5% CO2, >98% humidity for 24 h. Luciferase reporter activity is then measured. EC50 values were calculated by using standard methods known in the art.
# Luciferase Reporter Assay:
# 10 μL of supernatant from the assay is transferred to white 384-plate with flat bottom and squared wells. one pouch of QUANTI-Luc™ Plus is dissolved in 25 mL of water. 100 μL of QLC Stabilizer per 25 mL of QUANTI-Luc™ Plus solution was added. 50 μL of QUANTI-Luc™ Plus/QLC solution per well is then added. Luminescence is measured on a Platereader (e.g., Spectramax I3X (Molecular Devices GF3637001)).
# Luciferase reporter activity is then measured. EC50 values are calculated by using standard methods known in the art.
# T1 sequence (Q86WV6 whole entry R71H/G230A/H232R/R293Q): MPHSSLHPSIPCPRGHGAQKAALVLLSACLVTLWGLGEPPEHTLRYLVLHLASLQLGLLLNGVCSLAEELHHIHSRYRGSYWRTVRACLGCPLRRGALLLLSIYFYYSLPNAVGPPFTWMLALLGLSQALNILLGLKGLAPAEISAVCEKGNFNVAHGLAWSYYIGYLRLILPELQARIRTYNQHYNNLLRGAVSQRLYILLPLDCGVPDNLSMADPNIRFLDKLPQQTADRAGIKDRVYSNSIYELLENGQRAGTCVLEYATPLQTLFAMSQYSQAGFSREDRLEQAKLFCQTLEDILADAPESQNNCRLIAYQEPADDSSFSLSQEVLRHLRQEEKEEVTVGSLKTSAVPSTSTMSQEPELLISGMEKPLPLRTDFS
row,pEC50,SMILES
1,4.00 to 5.30,"O=C(Nc1ccc(C(F)(F)F)cc1)Nc1c[nH]c2ccc(-c3ccccc3)nc12 [Compound 328, 1-(5-phenyl-1H-pyrrolo[3,2-b]pyridin-3-yl)-3-(4-(trifluoromethyl)phenyl)urea]"
2,6.00 to 6.70,Cc1ccc2[nH]cc(NC(=O)Nc3ccc(C(F)(F)F)cc3)c2n1 [Compound 329]
3,5.30 to 6.00,O=C(Nc1ccc(C(F)(F)F)cc1)Nc1c[nH]c2cc(F)cnc12 [Compound 330]
4,5.30 to 6.00,O=C(Nc1ccc(C2CCCCC2)nc1)Nc1c[nH]c2cccnc12 [Compound 331]
5,5.30 to 6.00,O=C(Nc1cccc(C(F)(F)F)c1)Nc1c[nH]c2cccnc12 [Compound 332]
6,5.30 to 6.00,O=C(Nc1c[nH]c2ccc(-c3ccccc3)nc12)NC1CCC(C(F)(F)F)CC1 (centres unmarked) [Compound 335]
7,6.00 to 6.70,CCCCC1CCC(N/C(=N\C#N)Nc2c[nH]c3cccnc23)CC1 (centres unmarked) [Compound 336]
8,4.00 to 5.30,O=S(=O)(Nc1ccc(C(F)(F)F)cc1)Nc1c[nH]c2ncc(F)cc12 [Compound 337]
